In brackets after ≈: the same amount, converted by molar mass.
What was measured:
[1] = test system: polyG-polyC (polyC-polyG) (RNA, polymer) G/C; experiment: UV-Vis titration, Scatchard; details: PBS; for log Ks: I = 0.05 M (Table 1 says I = 0.015 M), cations not specified, I = 0.015 M (Methods: 0.05 M), pH 7, per base
[2] = test system: calf thymus ctDNA; experiment: UV–Vis titration with ctDNA (Scatchard); assay type: binding; details: PBS, pH 7; for Hypochromic effect H/%, ctDNA: UV–Vis titration, calculated by Scatchard equation; for log Ks, ctDNA: binding constant, Scatchard
Method: (§1) Polynucleotides were purchased as follows: polyG–polyC, polyA–polyU (Sigma-Aldrich, St. Louis, MO), calf thymus ctDNA (Aldrich). Polynucleotides were dissolved in PBS buffer, I = 0.05 mol dm^−3, pH 7.0. The calf thymus ctDNA was additionally sonicated and filtered through a […] filter. The polynucleotide concentration was spectroscopically determined as the concentration of nucleobases.
(§2) All UV–Vis absorbance measurements were conducted on a Perkin Elmer Lambda 25 spectrophotometer (Perkin Elmer, Waltham, MA). A quartz cell with a 1 cm path length was used for all absorbance studies. Compound stock solutions were 1 mM. The DNA/RNA at increasing ratios was then titrated into the compound buffer solution (1.48 × 10^−5 mol dm^−3) and the corresponding absorption spectra were recorded under the same conditions. All data were graphed and analysed using Origin software version 9.0 (OriginLab Corporation, Northampton, MA). The stability constants (Ks) and [bound compound]/[polynucleotide phosphate] ratios (n) were calculated according to the Scatchard Equation[63] ^, [64]. Values for Ks and n given in Table 1 all have satisfying correlation coefficients (0.99).
(§3) The binding constants logKs and the density of the binding sites n were calculated using Scatchard plot analysis. In addition, the binding constants Ks for compounds 8b and 8e were calculated only for titration data taken at the r ≥ 0.1, because below that ratio changes in absorption maxima were too small for accurate calculation (ΔA ≤ 0.04) (Table 1). The binding constants Ks and ratios n obtained by processing UV–Vis titration data using the Scatchard equation are summarised in Table 1.

[3] = test system: polyA-polyU (RNA, polymer) A/U; experiment: UV-Vis titration, Scatchard; details: PBS, I = 0.05 M (Table 1 says I = 0.015 M), cations not specified, I = 0.015 M (Methods: 0.05 M)
[4] = test system: E. coli ATCC 25925; experiment: Broth microdilution MIC, E. coli ATCC 25925; assay type: cell-based; details: Escherichia coli, ATCC25925; Table S2
Method: (§4) The compounds were evaluated for their in vitro anti-bacterial activity against Gram-positive bacteria: S. aureus (ATCC 25923), MRSA, methicillin-sensitive S. aureus (MSSA), E. faecalis, vancomycin-resistant E. faecium (VREF), and Gram-negative bacteria: E. coli (ATCC 25925), P. aeruginosa (ATCC 27853), A. baumannii (ATCC 19606) and ESBL-producing K. pneumoniae (ATCC 27736). Standard broth microdilution method as recommended in guidelines of Clinical and Laboratory Standards Institute[61] ^, [65] ^, [66] was applied and the minimum inhibitory concentration (MIC) of compounds was tested. In short, testing was performed in U-bottomed 96-well sterile plastic microdilution trays (Falcon 3077, Becton Dickinson Labware, Franklin Lakes, NJ) in cation (Ca^2+ and Mg^2+) adjusted Mueller–Hinton broth medium (Becton Dickinson and Co., Cockeysville, MD). All testings were performed in triplicate.
(§5) The in vitro anti-bacterial activity of 5-amidinobenzimidazoles 7a–7e, 8a–8e, and 9a–9e was tested against Gram-positive bacteria including S. aureus (ATCC 25923), Enterococcus faecalis (ATCC 29212), and Gram-negative bacteria including E. coli (ATCC 25925), K. pneumoniae (ATCC 700803), P. aeruginosa (ATCC 27853), and Acinetobacter baumannii (ATCC 19606).

[5] = test system: bloodstream form T. brucei (strain 221); experiment: Anti-trypanosomal screening, resazurin; assay type: cell-based; details: Trypanosoma brucei, mean of triplicate ± SEM
Method: Bloodstream form T. brucei (strain 221) were cultured in modified Iscove’s medium, as outlined[67] and trypanocidal assays were performed using 96-well microtitre plates. […] Resazurin was added after 48 h, the plates incubated for a further 16 h, and then read in a Spectramax plate reader (Molecular Devices Corporation, San Jose, CA). The data were analysed using GraphPad Prism (GraphPad, La Jolla, CA). Each drug concentration was tested in triplicate.

[6] = test system: ctDNA; experiment: Thermal melting (ΔTm) of ctDNA; assay type: binding, calf; details: PBS, pH 7; for ΔTm, ctDNA, r = 0.3: r = [compound]/[polynucleotide] 0.3, error ±0.5 °C
Method: (§6) T m experiments were conducted with a Perkin Elmer Lambda 25 spectrophotometer in 1 cm quartz cuvettes. The absorbance of the DNA/RNA-compound complex was monitored at 260 nm as a function of temperature. The absorbance of the ligands was subtracted from every curve, and the absorbance scale was normalised. The ΔT m values were calculated by subtracting T m of the free nucleic acid from T m of the complex. Every reported ΔT m value was the average of at least two measurements. The error of ΔT m is ±0.5 °C. All data were graphed and analysed using Origin software version 9.0.
(§7) Denaturation experiments were carried out at different amounts of the compounds (r = 0.1, 0.3, 0.5, and 0.7 eq; r = [compound]/[polynucleotide]) with ctDNA and polyA-polyU.

[7] = test system: E. faecium VRE; experiment: Broth microdilution MIC, VRE clinical strain; assay type: cell-based; details: Enterococcus faecium
Method: as §4

[8] = test system: K. pneumonia ATCC 700803; experiment: Broth microdilution MIC, K. pneumoniae ATCC 700803; assay type: cell-based; details: Klebsiella pneumoniae, ATCC700803; Table S2
Method: as §4, §5

[9] = test system: A. baumannii ATCC 19606; experiment: Broth microdilution MIC, A. baumannii ATCC 19606; assay type: cell-based; details: Acinetobacter baumannii, ATCC19606; Table S2
Method: as §4, §5

[10] = test system: E. faecalis ATCC 29212; experiment: Broth microdilution MIC, E. faecalis ATCC 29212; assay type: cell-based; details: Enterococcus faecalis, ATCC29212; Table S2
Method: as §4, §5

[11] = test system: polyA-polyU; experiment: Thermal melting (ΔTm) of polyA-polyU; assay type: binding; details: for ΔTm, polyA-polyU, r = 0.1: PBS, pH 7; for ΔTm, polyA-polyU, r = 0.3 / ΔTm, polyA-polyU, r = 0.5: first melting midpoint
Method: as §6, §7

[12] = test system: polyA-polyU; experiment: UV–Vis titration with polyA-polyU (Scatchard); assay type: binding; details: for Hypochromic effect H/%, polyA-polyU: UV–Vis titration, calculated by Scatchard equation; for Hypochromic effect H/%, polyA-polyU / log Ks, polyA-polyU: PBS, pH 7; for log Ks, polyA-polyU: binding constant, Scatchard
Method: as §1, §2, §3

[13] = test system: S. aureus MSSA; experiment: Broth microdilution MIC, MSSA clinical strain; assay type: cell-based; details: Staphylococcus aureus
Method: as §4

[14] = test system: polyA-polyU (RNA, polymer) A/U; experiment: UV melting at 260 nm; details: PBS, I = 0.05 M, cations not specified, pH 7, r = 0.3 [compound]/[polynucleotide]
[15] = test system: P. aeruginosa ATCC 27853; experiment: Broth microdilution MIC, P. aeruginosa ATCC 27853; assay type: cell-based; details: Pseudomonas aeruginosa, ATCC27853; Table S2
Method: as §4, §5

[16] = test system: S. aureus ATCC 25923; experiment: Broth microdilution MIC, S. aureus ATCC 25923; assay type: cell-based; details: Staphylococcus aureus, ATCC25923; Table S2
Method: as §4, §5

[17] = test system: S. aureus MRSA; experiment: Broth microdilution MIC, MRSA clinical strain; assay type: cell-based; details: Staphylococcus aureus, antibiotic-resistant clinical strain
Method: as §4

[18] = test system: polyC-polyG; experiment: UV–Vis titration with polyC-polyG (Scatchard); assay type: binding; details: PBS, pH 7; for Hypochromic effect H/%, polyC-polyG: UV–Vis titration, calculated by Scatchard equation; for log Ks, polyC-polyG: binding constant, Scatchard
Method: as §1, §2, §3

[19] = test system: P. aeruginosa ESBL; experiment: Broth microdilution MIC, ESBL P. aeruginosa clinical strain; assay type: cell-based; details: Pseudomonas aeruginosa
[20] = test system: E. coli ESBL; experiment: Broth microdilution MIC, ESBL E. coli clinical strain; assay type: cell-based; details: Escherichia coli
[21] = footnote c: biphasic melting curve

Structure (SMILES)	Hypochromic effect H/%, ctDNA [2] [%]	log Ks, ctDNA [2]	log Ks ([3]; pH 7, per base)	MIC [4] [µg/mL]	IC50 [5] [µM]	ΔTm, ctDNA, r = 0.5 [6] [°C]	ΔTm, ctDNA, r = 0.7 [6] [°C]	ΔTm, ctDNA, r = 0.3 [6] [°C]	MIC [7] [µg/mL]	MIC [8] [µg/mL]	MIC [9] [µg/mL]	melting point [°C]	MIC [10] [µg/mL]	ΔTm, polyA-polyU, r = 0.1 [11] [°C]	ΔTm, polyA-polyU, r = 0.3 [11] [°C]	log Ks, polyA-polyU [12]	MIC [13] [µg/mL]	MIC [15] [µg/mL]	MIC [16] [µg/mL]	MIC [17] [µg/mL]	also measured
Cl.Cl.N=C(N)c1ccc2[nH]c(-c3ccc(OCc4cn(-c5ccccc5Cl)nn4)cc3)nc2c1 [Compound 7c, 2–(4-((1–(2-Chlorophenyl)-1H-1,2,3-triazol-4-yl)methoxy)phenyl)-1H-benz[d]imidazole-5-carboximidamide dihydrochloride]	36.3	6.24	5.21	256	> 15	3.20	3.77	2.35	256	> 256	> 256	176 to 177	64	0.20	2.72	5.21	32	> 256	64	16	binding ([1]; pH 7, changes too small for accurate calculation, compound 14.8 µM): weak; Hypochromic effect H/%, polyA-polyU [12]: 38.9%; ΔTm ([14]; error ±0.5, per base): 2.72 °C
CC(C)NC(=N)c1ccc2[nH]c(-c3ccc(OCc4cn(-c5ccccc5Cl)nn4)cc3)nc2c1.Cl.Cl [Compound 8c, N-isopropyl-2–(4-((1–(2-chlorophenyl)-1H-1,2,3-triazol-4-yl)methoxy)phenyl)-1H-benz[d]imidazole-5-carboximidamide dihydrochloride]	33.8	5.64	6.00	256	> 15	3.89	4.39	3.40	32	> 256	> 256	210 to 213	64	0.76	0.58	6.00	16	> 256	32	8	log Ks [1]: 6.43; ΔTm, polyA-polyU, r = 0.5 ([11]; r = 0.5): 1.12 °C; Hypochromic effect H/%, polyA-polyU [12]: 50.4%; Hypochromic effect H/%, polyC-polyG [18]: 5.31%; log Ks, polyC-polyG [18]: 6.43
Cl.Cl.Clc1ccccc1-n1cc(COc2ccc(-c3nc4cc(C5=NCCN5)ccc4[nH]3)cc2)nn1 [Compound 9c, 5–(4,5-Dihydro-1H-imidazol-2-yl)-2–(4-((1–(2-chlorophenyl)-1H-1,2,3-triazol-4-yl)methoxy)phenyl)-1H-benz[d]imidazole dihydrochloride]	11.7	6.43	5.38	256	> 15	3.31	3.80	3.55	64	> 256	> 256	194 to 196	32	2.85	4.27	5.38	128	> 256	128	8	log Ks [1]: 6.43; ΔTm, polyA-polyU, r = 0.3, second melting midpoint [11, 21]: 13.99 °C; Hypochromic effect H/%, polyA-polyU [12]: 29.3%; Hypochromic effect H/%, polyC-polyG [18]: 5.34%; log Ks, polyC-polyG [18]: 6.43; ΔTm ([14]; error ±0.5, biphasic, second midpoint 13.99, per base): 4.27 °C
c1ccc(Cn2cc(COc3ccc(-c4nc5cc(C6=NCCN6)ccc5[nH]4)cc3)nn2)cc1 [Compound 9d]	24.6	5.84		128 (≈ 285 µM)	10.8 ± 0.4	3.52	2.60	3.31	64 (≈ 142 µM)	> 256	> 256		128 (≈ 285 µM)	1.26	1.42	5.89	64 (≈ 142 µM)	128 (≈ 285 µM)	64 (≈ 142 µM)	64 (≈ 142 µM)	log Ks [1]: 6.59; log Ks ([3]; pH 7, n fixed, per base): 5.89; IC90 [5]: > 25 µM; MIC [19]: 128 µg/mL (≈ 285 µM); ΔTm, polyA-polyU, r = 0.3, second melting midpoint [11, 21]: 10.30^c °C; ΔTm, polyA-polyU, r = 0.5 ([11]; r = 0.5): 2.06 °C; ΔTm, polyA-polyU, r = 0.5, second melting midpoint ([11]; r = 0.5, footnote c: biphasic melting curve): 13.29^c °C; Hypochromic effect H/%, polyA-polyU (from experimental data) ([12]; footnote e: calculated from experimental data): 55.5 ^e %; Hypochromic effect H/%, polyC-polyG [18]: 5.89%; log Ks, polyC-polyG [18]: 6.59; MIC [20]: 128 µg/mL (≈ 285 µM); ΔTm ([14]; error ±0.5, biphasic, second midpoint 10.30, per base): 1.42 °C
